One assay deals with T1, sOGT (Homo sapiens, UniProt O15294).
T1 sequence (O15294 1-665 isoform O15294-4): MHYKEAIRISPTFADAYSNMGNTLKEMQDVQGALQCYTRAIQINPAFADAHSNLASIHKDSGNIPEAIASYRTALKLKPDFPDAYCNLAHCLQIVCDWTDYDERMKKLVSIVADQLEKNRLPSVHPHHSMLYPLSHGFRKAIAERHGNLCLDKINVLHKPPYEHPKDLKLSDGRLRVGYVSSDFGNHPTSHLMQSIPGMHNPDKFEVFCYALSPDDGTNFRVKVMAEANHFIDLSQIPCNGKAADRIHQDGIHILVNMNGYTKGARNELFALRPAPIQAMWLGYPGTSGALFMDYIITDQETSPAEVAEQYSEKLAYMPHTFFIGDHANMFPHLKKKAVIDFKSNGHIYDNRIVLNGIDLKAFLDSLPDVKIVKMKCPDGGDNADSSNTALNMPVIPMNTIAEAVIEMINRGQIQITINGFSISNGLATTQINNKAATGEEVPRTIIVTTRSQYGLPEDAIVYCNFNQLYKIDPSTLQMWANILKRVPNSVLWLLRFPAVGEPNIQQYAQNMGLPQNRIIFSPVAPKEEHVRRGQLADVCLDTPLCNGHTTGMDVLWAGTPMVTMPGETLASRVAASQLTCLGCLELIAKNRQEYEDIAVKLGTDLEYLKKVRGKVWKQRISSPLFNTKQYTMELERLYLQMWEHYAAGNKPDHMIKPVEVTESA
Briefly: High-throughput kinetic protease-protection screen with polypeptide 4.10. The class given is biochemical. The following applies: 25 μg/mL (~70 μM); hit = <70% activity in one duplicate and <80% in the second. The source says:
With the final assay conditions established, 124,226 compounds were screened in duplicate at the ICCB (Harvard University, Boston, Mass.) over two days; the highest throughput of any assay performed at the ICCB screening facility. Small molecule libraries from several commercial vendors were screened as well as known bioactive compounds, natural product extracts, and molecules made using diversity oriented synthetic approaches. Included in this set were 52,026 of the 64,416 compounds screened using a donor displacement method such as that described in PCT application PCT/US2007/008806, which was filed Apr. 11, 2007. The vast majority compounds screened were small molecules (average MW ˜350) that were optimized to have favorable physico-chemical properties such as solubility, decreased toxicity, and increased stability. All of the commercial compounds at the ICCB are plated at a stock concentration of 5 mg/mL, which, given a 20 μL reaction volume, corresponds to a 25 μg/mL inhibitor concentration in each well. The format of most compound plates at the ICCB has the last two columns of each 384-well plate empty. This allowed each assay plate to have column of negative controls (run without inhibitor) and column of positive controls (run without sOGT), which allowed a Z′ to be calculated for each plate. These values typically ranged from 0.7-0.8.
Data workup began by calculating the average positive and negative control values independently for both duplicates of each plate. Using the linear relationship between percent glycosylation and fluorescence shown above (FIG. 7), the percent glycosylation was calculated for each well, with 0% corresponding to the average value of the positive controls and 100% corresponding to the average value of the negative controls. In actuality the range is roughly […] glycosylated polypeptide since the reaction was not allowed to proceed to completion. However, this simplification was employed to facilitate the comparison of different sets of plates. There were remarkably few compounds that reproducibly appeared to inhibit OGT, which enabled hits to be selected using a very high cutoff. Compounds with <70% activity in one duplicate and <80% activity in the second duplicate were scored as hits. Even using this lax criterion, the total unfiltered hit set only numbered 84, corresponding to a hit rate of 0.065%.
384-well plates (Costar #3710) were filled using a liquid handling robot with 10 μL of a mixture of 8 μM polypeptide 4.10, 40 μM UDP-GlcNAc, and buffer (50 mM Tris, 20 mM CaCl2, 0.05% Tween-20, 0.05% NP-40, pH=7.8, 500 μM tris(hydroxypropyl)phosphine). Compound libraries were then transferred to the assay plates using a 100 nL pin array and 10 μL of 500 nM sOGT in buffer (50 mM Tris, 20 mM CaCl2, 0.05% Tween-20, 0.05% NP-40, pH=7.8, 500 μM tris(hydroxypropyl)phosphine) was added using a liquid handling robot. The compounds were assayed at a concentration of 25 μg/mL or ˜70 μM, assuming an average compound MW of 350. After 2-3 hours, 20 μL of a 20 ng/mL proteinase K solution in buffer (50 mM Tris, 20 mM CaCl2, 0.05% Tween-20, 0.05% NP-40, pH=7.8) was added and allowed to react for 30-90 minutes. The plates were read using a Perkin-Elmer Envision® microplate reader with a 480 nm excitation filter and 530 nm emission filter.

For assay [1], the target named is T2, O-Linked N-acetylglucosaminyltransferase (OGT) (Homo sapiens, UniProt O15294).
T2 sequence (O15294 1-1046): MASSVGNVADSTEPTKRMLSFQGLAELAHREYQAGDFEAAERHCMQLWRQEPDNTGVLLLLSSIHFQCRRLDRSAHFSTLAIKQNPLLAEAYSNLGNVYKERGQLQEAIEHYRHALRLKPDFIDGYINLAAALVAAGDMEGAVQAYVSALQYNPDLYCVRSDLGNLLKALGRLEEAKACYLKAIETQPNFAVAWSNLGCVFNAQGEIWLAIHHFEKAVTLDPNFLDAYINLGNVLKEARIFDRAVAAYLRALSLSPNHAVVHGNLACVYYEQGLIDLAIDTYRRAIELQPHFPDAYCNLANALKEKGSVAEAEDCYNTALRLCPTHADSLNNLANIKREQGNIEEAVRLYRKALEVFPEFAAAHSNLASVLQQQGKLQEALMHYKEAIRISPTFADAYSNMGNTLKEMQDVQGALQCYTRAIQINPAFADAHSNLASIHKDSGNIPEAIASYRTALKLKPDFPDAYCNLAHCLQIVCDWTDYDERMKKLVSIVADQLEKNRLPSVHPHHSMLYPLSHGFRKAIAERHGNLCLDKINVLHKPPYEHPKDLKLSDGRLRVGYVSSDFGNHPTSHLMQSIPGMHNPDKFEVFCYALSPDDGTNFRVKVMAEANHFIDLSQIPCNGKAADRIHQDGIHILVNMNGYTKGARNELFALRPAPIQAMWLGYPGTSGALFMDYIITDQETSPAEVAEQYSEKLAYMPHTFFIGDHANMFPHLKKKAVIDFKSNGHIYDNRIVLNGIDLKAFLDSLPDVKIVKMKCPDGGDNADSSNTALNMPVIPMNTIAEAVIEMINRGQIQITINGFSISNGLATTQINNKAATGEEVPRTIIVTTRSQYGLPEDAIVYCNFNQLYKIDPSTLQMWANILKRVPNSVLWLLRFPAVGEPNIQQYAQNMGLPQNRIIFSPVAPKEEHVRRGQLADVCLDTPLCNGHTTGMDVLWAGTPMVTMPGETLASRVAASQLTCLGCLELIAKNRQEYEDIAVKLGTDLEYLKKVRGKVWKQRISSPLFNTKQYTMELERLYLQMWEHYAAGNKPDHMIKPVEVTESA
Briefly: Glycosylation of CK2-derived polypeptide substrates by OGT, quantified by LC/MS. The class given is biochemical. The settings on record: for Relative rate of glycosylation: OGT, LC/MS peak integration at 445 nm, relative to wt polypeptide 4.1. The method, then:
To address the first requirement, a panel of polypeptides was synthesized based on a truncated version of the CKII polypeptide [CKII peptide PGGSTPVSSNAMM (SEQ ID NO:20)]. The polypeptide was modified from the native sequence in several ways. First, a fluorescein was installed on the N-terminus during synthesis. Second, a lysine was added to the C-terminus so that a second dye or quencher could be installed by reaction with the appropriate N-hydroxysuccinimidyl ester. These modifications allowed two different FRET approaches. The first approach required the installation of a coumarin derivative on the polypeptide. The second required installation of a quencher molecule, which measured total fluorescence intensity. (See Examples 2 and 3). Finally, the residues on either side of the glycosylated serine of the truncated CK2 polypeptide were changed to phenylalanine, leucine or arginine to introduce proteolytic cleavage sites for common proteases (such as trypsin, chymotrypsin and thermolysin) that were not present in the native sequence. It was reasoned that cleavage adjacent to the glycosylation site would yield the largest difference in the rate of proteolysis between glycosylated and native polypeptides. This series of polypeptides was synthesized and screened for OGT activity using by LC/MS. Peak integration (measured at 445 nm) was used to quantitative products and reactants and mass spectrometry was used to confirm peak identity. The results are presented in Table 2 and some of the peptides (peptide 4.1, 4.4, and 4.5 top to bottom) are illustrated in FIG. 2.
All polypeptides were purchased from Tufts University core facility (Boston, Mass.). The mass of crude product was verified and the polypeptides were labeled under the following conditions: Polypeptide was dissolved in 250 mM NaHCO3 buffer, pH 8.2 at a 5 mM concentration and the appropriate NHS-Ester (0.5 eq) was dissolved in DMSO (a volume of 1/10 of the aqueous buffer was used). The DMSO solution was quickly added to the peptide and the reaction proceeded at room temperature for 30 minutes. This was repeated 2 more times (four more times for polypeptide 4.10). The reaction was monitored by LC/MS. LCMS conditions for polypeptides 4.1-4.8—Agilent Eclipse 5 μm XD8-C8 column, 0→100% CH3CN+0.1% formic acid over 20 minutes. LCMS conditions for polypeptides 4.9-4.10—Agilent Eclipse 5 μm XD8-C8 column, 0→100% CH3CN+0.1% NH4OH over 20 minutes. Each polypeptide was purified by preparative HPLC. Conditions for polypeptides 4.1-4.8 were: —Phenomonex Luna C18 5 μm column, 0→100% CH3CN+0.1% TFA over 40 minutes. Conditions for polypeptides 4.9-4.10 were: —Phenomonex Luna C18 5 μm column, 0→100% CH3CN+0.1% NH4OH over 40 minutes. Products were confirmed by LC/MS. Preparative Glycosylation of Labeled Polypeptides: Purified FRET labeled polypeptides were added (20-50 μM final concentration) to assay buffer (50 mM Tris, 20 mM CaCl2, 0.05% Tween-20, 0.05% NP-40, pH=7.8), 200 μM UDP-GlcNAc, 0.05 units of alkaline phosphatase, and 5 μM OGT. Reactions were monitored using LCMS: conditions for polypeptides 4.1-4.8—Agilent Eclipse 5 μm XD8-C8 column, 10→60% CH3CN+0.1% formic acid over 20 minutes. LCMS conditions for polypeptides 4.9-4.10—Agilent Eclipse 5 μm XD8-C8 column, 10→60% CH3CN+0.1% NH4OH over 20 minutes, and when complete were purified using the same column and conditions. Polypeptides 4.1-4.8 were quantitated by absorption at 492 nm using an extinction coefficient of 86,000 cm^−1M^−1; polypeptide 4.9 was quantitated by absorption at 530 nm using an extinction coefficient of 26,000 cm^−1M^−1; polypeptide 4.10 was quantitated by absorption at 530 nm using an extinction coefficient of 52,000 cm^−1M^−1. Fluorescence Resonance Energy Transfer (FRET)-Peptide Approach #1

Non-standard residues stand in square brackets, D forms with d. Primed or numbered codes have the meaning given here. No end group written: not given here. *: point of attachment. FITC = O=C1OC2(c3ccc(O)cc3Oc3cc(O)ccc32)c2ccc(NC(=S)*)cc21; Aha′ = not defined here

These results are taken from patent publication US8993718B2, “Methods and compositions for detecting and modulating O-glycosylation” (President and Fellows of Harvard College, priority 2007, dated 2015).

On to `Cc1cc(C)c2c(C(=O)O)cc(O)nc2c1` [Compound 6], for which the “hit in the high throughput screen” value on sOGT is “singleton hits”. “FITC(Aha)STPVSSANMK ({FITC}-[Aha′]STPVSSANMK; reading uncertain; also: printed as FITC(Aha)STPVSSANMK) [Polypeptide 4.1]”: the relative glycosylation rate in assay [1] (FIG. 2, natural (wild-type) sequence set as reference) stood at 100%. Further, the “Relative rate of glycosylation” value in assay [1] is reported as 1. On to “FITC(Aha)STPRSSANMK ({FITC}-[Aha′]STPRSSANMK; reading uncertain; also: printed as FITC(Aha)STPRSSANMK) [Polypeptide 4.3]”, for which, in assay [1], the “Relative rate of glycosylation” value is listed as 0. For “FITC(Aha)STPVSRANMK ({FITC}-[Aha′]STPVSRANMK; reading uncertain; also: printed as FITC(Aha)STPVSRANMK) [Polypeptide 4.5]”, the “Relative rate of glycosylation” value in assay [1] stood at 0.7. In the case of “FITC(Aha)STPVSFANMK ({FITC}-[Aha′]STPVSFANMK; reading uncertain; also: printed as FITC(Aha)STPVSFANMK) [Polypeptide 4.4]”, in assay [1], the “Relative rate of glycosylation” value is listed as 0.4. Take `O=C(/C=C/c1cccs1)Nc1scc(-c2ccccc2)c1C(=O)O` [Compound 2]: the “hit in the high throughput screen” value on sOGT is reported as “singleton hits”.

As for “FITC(Aha)STPFSSANMK ({FITC}-[Aha′]STPFSSANMK; reading uncertain; also: printed as FITC(Aha)STPFSSANMK) [Polypeptide 4.2]”, in assay [1], the “Relative rate of glycosylation” value is 0.15. In the case of `Fc1ccc(NC2=NCCN2)cc1` [Compound 21], on sOGT, the “hit in the high throughput screen” value was “singleton hits”.

With `CCn1cc(C(=O)N2CCOCC2)c(=O)c2cc(S(=O)(=O)N(C)C)ccc21` [Compound 18], the “hit in the high throughput screen” value at sOGT is listed as “singleton hits”. Consider `Cl.Cl.N=C(N)c1cccc(NC(=O)Nc2cccc(C(=N)N)c2)c1` [Compound 10], for which the “hit in the high throughput screen” value on sOGT was “singleton hits”. Take `COc1cccc(/N=C\c2c[nH]c3ccccc23)c1` [Compound 5]: the “hit in the high throughput screen” value on sOGT is recorded as “hits”.

As to `N#CSc1cc(SC#N)c(N)nc1N` [Compound 4], the “hit in the high throughput screen” value on sOGT is “hits”.

Take `O=C(O)[C@H](Cc1ccccc1)N1Cc2ccccc2C1=O` [Compound 17]: the “hit in the high throughput screen” value at sOGT is listed as “singleton hits”. Same read-out and setting: next, `Clc1cccc(C(c2nnc(-c3ccccc3)o2)N2CCN(c3ccccc3)CC2)c1` (centres unmarked) [Compound 15]: “singleton hits”; `O=C1OCc2ccccc21` [Compound 16]: “singleton hits”. Still for that read-out and setting: in the case of `CSC(SC)=C(C#N)S(=O)(=O)c1ccc(Cl)cc1` [Compound 3] it was “hits”.
